Measured values taken from US8822468B2 (Novartis AG, priority 2008, dated 2014).

These molecules were tested against T1, cMET receptor tyrosine kinase (GST-cMET (969-1390)) (Homo sapiens, UniProt P08581) (assay: EPK cMET profiling assay (LanthaScreen TR-FRET antibody based kinase phosphorylation assay)). Details: purified recombinant GST-cMET (969-1390), 2 μM ATP, 50 nM Fluorescein-PolyEAY, 60 minutes at room temperature; read-out: c-Met IC50.
T1 construct: made in house
T1 sequence (P08581 969-1390): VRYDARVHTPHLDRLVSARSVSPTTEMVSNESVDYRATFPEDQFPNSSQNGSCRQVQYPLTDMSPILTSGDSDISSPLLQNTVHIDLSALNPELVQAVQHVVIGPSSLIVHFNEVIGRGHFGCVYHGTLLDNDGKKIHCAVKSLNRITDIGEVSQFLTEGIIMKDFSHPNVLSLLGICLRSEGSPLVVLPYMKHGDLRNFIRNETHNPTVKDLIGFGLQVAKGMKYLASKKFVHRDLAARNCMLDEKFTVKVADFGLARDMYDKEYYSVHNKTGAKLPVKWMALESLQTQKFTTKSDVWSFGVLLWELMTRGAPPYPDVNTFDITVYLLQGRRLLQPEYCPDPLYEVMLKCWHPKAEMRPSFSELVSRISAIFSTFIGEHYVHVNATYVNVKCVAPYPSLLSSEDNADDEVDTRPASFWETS
Type: biochemical
Summary of the method: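 Compounds tested at eight final concentrations from 10 down to 0.003 µM against affinity-purified GST-cMET (969-1390, 0.3 nM) with 2 µM ATP and 50 nM fluorescein-PolyEAY in Tris buffer with MgCl2 and MnCl2, 1 h at room temperature. After EDTA stop, phosphoproduct detected by LanthaScreen TR-FRET with Tb-PY20 antibody, end-point measurement.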
`c1cnc2ccc(Cc3cnc4ccc(NCC5CCCO5)nn34)cc2c1` (stereo not drawn) [Example 80, (3-Quinolin-6-ylmethyl-imidazo[1,2-b]pyridazin-6-yl)-(tetrahydro-furan-2-ylmethyl)-amine] showed an IC50 of 38 nM. `C[C@H](c1c(F)cc2ncccc2c1F)c1cnc2ccc(-c3cnn(CCO)c3)nn12` [Example 183, 2-(4-{3-[(R)-1-(5,7-Difluoro-quinolin-6-yl)-ethyl]-imidazo[1,2-b]pyridazin-6-yl}-pyrazol-1-yl)ethanol] gave an IC50 of 200 nM. For `CC(c1ccc2ncccc2c1Cl)c1cnc2ccc(-c3cnn(C)c3)nn12` (racemic) [Example 225, (rac)-5-Chloro-6-{1-[6-(1-methyl-1H-pyrazol-4-yl)-imidazo[1,2-b]pyridazin-3-yl]-ethyl}-quinoline], the IC50 was 25 nM. In the case of `C[C@@H](c1c(F)cc2ncccc2c1F)c1cnc2ccc(-c3cnn(CCO)c3)nn12` [Example 184, 2-(4-{3-[(S)-1-(5,7-Difluoro-quinolin-6-yl)-ethyl]-imidazo[1,2-b]pyridazin-6-yl}-pyrazol-1-yl)ethanol], the IC50 is reported as under 3 nM. Work on `CC(c1cc2cccnc2cc1F)c1cnc2ccc(-c3cnn(CCO)c3)nn12` (racemic) [Example 255] yielded an IC50 of 36 nM. `CC(c1ccc2ncccc2c1)c1cnc2ccc(-c3cnn(CCO)c3)nn12` (racemic) [Example 177, (rac)-2-{4-[3-(1-Quinolin-6-yl-ethyl)-imidazo[1,2-b]pyridazin-6-yl]-pyrazol-1-yl}-ethanol] gave an IC50 of 20 nM. Work on `C[C@@H](c1ccc2ncccc2c1)c1cnc2ccc(-c3cnn(C4CCN(C)CC4)c3)nn12` [Example 239, 6-((S)-1-{6-[1-(1-Methyl-piperidin-4-yl)-1H-pyrazol-4-yl]-imidazo[1,2-b]pyridazin-3-yl}-ethyl)quinoline] yielded an IC50 of 31 nM. `CN1CCC(n2cc(-c3ccc4ncc(Cc5c(F)cc6ncccc6c5F)n4n3)cn2)CC1` [Example 246, 5,7-Difluoro-6-{6-[1-(1-methyl-piperidin-4-yl)-1H-pyrazol-4-yl]-imidazo[1,2-b]pyridazin-3-ylmethyl}-quinoline] was tested, and the IC50 was under 3 nM. For `CNC(=O)c1ccc(-c2ccc3ncc(Cc4ccc5ncccc5c4)n3n2)cc1F` [Example 70, 2-Fluoro-N-methyl-4-(3-quinolin-6-ylmethyl-imidazo[1,2-b]pyridazin-6-yl)-benzamide], the IC50 was 62 nM. `Nc1cccc(-c2ccc3ncc(Cc4ccc5ncccc5c4)n3n2)c1` [Example 20, 3-(3-Quinolin-6-ylmethyl-imidazo[1,2-b]pyridazin-6-yl)-phenylamine] was tested, and the IC50 was 60 nM. `c1cnc2ccc(Cc3cnc4ccc(N5CCCC5)nn34)cc2c1` [Example 85, 6-(6-Pyrrolidin-1-yl-imidazo[1,2-b]pyridazin-3-ylmethyl)-quinoline] gave an IC50 of 95 nM. Molecule `Cn1cc(-c2ccc3ncc(Cc4ccc5ncccc5c4)n3n2)cn1` [Example 2, 6-[6-(1-Methyl-1H-pyrazol-4-yl)-imidazo[1,2-b]pyridazin-3-ylmethyl]-quinoline] has an IC50 of 14 nM. `c1cnc2ccc(Cc3cnc4ccc(NC5CCCCCCC5)nn34)cc2c1` [Example 97, Cyclooctyl-(3-quinolin-6-ylmethyl-imidazo[1,2-b]pyridazin-6-yl)-amine] was tested, and the IC50 was 610 nM. Work on `Fc1cc2ncccc2cc1Cc1cnc2ccc(-c3cnn(C4CCN(CC(F)(F)F)CC4)c3)nn12` [Example 149, 7-Fluoro-6-(6-{1-[1-(2,2,2-trifluoro-ethyl)-piperidin-4-yl]-1H-pyrazol-4-yl}-imidazo[1,2-b]pyridazin-3-ylmethyl)-quinoline] yielded an IC50 of 31 nM. With `Fc1cc2ncccc2cc1Cc1cnc2ccc(-c3cn[nH]c3)nn12` [Example 251, 7-Fluoro-6-[6-(1H-pyrazol-4-yl)-imidazo[1,2-b]pyridazin-3-ylmethyl]-quinoline] the IC50 was 21 nM. `Cn1cc(-c2ccc3ncc(Cc4cc5cccnc5cc4C(F)(F)F)n3n2)cn1` [Example 169, 6-[6-(1-Methyl-1H-pyrazol-4-yl)-imidazo[1,2-b]pyridazin-3-ylmethyl]-7-trifluoromethyl-quinoline] showed an IC50 of 400 nM. Molecule `COCCNc1ccc2ncc(Cc3ccc4ncccc4c3)n2n1` [Example 89, (2-Methoxy-ethyl)-(3-quinolin-6-ylmethyl-imidazo[1,2-b]pyridazin-6-yl)-amine] has an IC50 of 26 nM. With `O=C1CN(c2ccc3ncc(Cc4ccc5ncccc5c4)n3n2)CCN1` [Example 102, 4-(3-Quinolin-6-ylmethyl-imidazo[1,2-b]pyridazin-6-yl)-piperazin-2-one] the IC50 was 38 nM. Molecule `c1ccc(-c2ccc3ncc(Cc4ccc5ncccc5c4)n3n2)cc1` [Example 30, 6-(6-Phenyl-imidazo[1,2-b]pyridazin-3-ylmethyl)-quinoline] has an IC50 of 91 nM. In the case of `CCn1cc(-c2ccc3ncc(Cc4cc5cccnc5cc4Cl)n3n2)cn1` [Example 242, 7-Chloro-6-[6-(1-ethyl-1H-pyrazol-4-yl)-imidazo[1,2-b]pyridazin-3-ylmethyl]-quinoline], the IC50 is reported as 86 nM. With `Cn1cc(-c2ccc3ncc(C(O)c4ccc5nccn5c4)n3n2)cn1` (racemic) [Example 9, (rac)-Imidazo[1,2-a]pyridin-6-yl-[6-(1-methyl-1H-pyrazol-4-yl)-imidazo[1,2-b]pyridazin-3-yl]-methanol] the IC50 was 170 nM. With `CC(c1cc2cnn(C)c2cc1F)c1cnc2ccc(-c3cnn(C)c3)nn12` (racemic) [Example 278, (rac)-3-[1-(6-Fluoro-1-methyl-1H-indazol-5-yl)-ethyl]-6-(1-methyl-1H-pyrazol-4-yl)-imidazo[1,2-b]pyridazine] the IC50 was 21 nM. `OCCn1cc(-c2ccc3ncc(Cc4ccc(O)cc4)n3n2)cn1` [Example 220, 4-{6-[1-(2-Hydroxy-ethyl)-1H-pyrazol-4-yl]-imidazo[1,2-b]pyridazin-3-ylmethyl}-phenol] gave an IC50 of 330 nM. With `CC(C)CNc1ccc2ncc(Cc3ccc4ncccc4c3)n2n1` [Example 79, Isobutyl-(3-quinolin-6-ylmethyl-imidazo[1,2-b]pyridazin-6-yl)-amine] the IC50 was 44 nM. Work on `OCCN1CCC(n2cc(-c3ccc4ncc(Cc5cc6cccnc6cc5F)n4n3)cn2)CC1` [Example 147, 2-(4-{4-[3-(7-Fluoro-quinolin-6-ylmethyl)-imidazo[1,2-b]pyridazin-6-yl]-pyrazol-1-yl}-piperidin-1-yl)-ethanol] yielded an IC50 of 82 nM. `Cn1cc(-c2ccc3ncc(Cc4ccc5ncsc5c4)n3n2)cn1` [Example 12, 3-Benzothiazol-6-ylmethyl-6-(1-methyl-1H-pyrazol-4-yl)-imidazo[1,2-b]pyridazine] was tested, and the IC50 was 32.5 nM. For `Cn1ncc2cc(Cc3cnc4ccc(-c5cnn(C6CCNCC6)c5)nn34)c(F)cc21` [Example 282, 3-(6-Fluoro-1-methyl-1H-indazol-5-ylmethyl)-6-(1-piperidin-4-yl-1H-pyrazol-4-yl)-imidazo[1,2-b]pyridazine], the IC50 was 87 nM. Work on `Cn1ccc2cc(-c3ccc4ncc(Cc5ccc6ncccc6c5)n4n3)ccc21` [Example 37, 6-[6-(1-Methyl-1H-indol-5-yl)-imidazo[1,2-b]pyridazin-3-ylmethyl]-quinoline] yielded an IC50 of 30 nM. `CC(c1ccc2ncn(C)c2c1)c1cnc2ccc(-c3cnn(CCO)c3)nn12` (racemic) [Example 185, (rac)-2-(4-{3-[1-(3-Methyl-3H-benzoimidazol-5-yl)-ethyl]-imidazo[1,2-b]pyridazin-6-yl}-pyrazol-1-yl)-ethanol] gave an IC50 of 56 nM. `c1cncc(-c2ccc3ncc(Cc4ccc5ncccc5c4)n3n2)c1` [Example 29, 6-(6-Pyridin-3-yl-imidazo[1,2-b]pyridazin-3-ylmethyl)-quinoline] was tested, and the IC50 was 40 nM. For `CC(c1ccc2ncn(C)c2c1)c1cnc2ccc(-c3cnn(C)c3)nn12` (racemic) [Example 206, (rac)-3-[1-(3-Methyl-3H-benzoimidazol-5-yl)-ethyl]-6-(1-methyl-1H-pyrazol-4-yl)-imidazo[1,2-b]pyridazine], the IC50 was 31 nM. `c1cnc2ccc(Cc3cnc4ccc(-c5ccsc5)nn34)cc2c1` [Example 65, 6-(6-Thiophen-3-yl-imidazo[1,2-b]pyridazin-3-ylmethyl)-quinoline] showed an IC50 of 160 nM. Work on `CC(c1ccc2ncccc2c1Cl)c1cnc2ccc(-c3cnn(C4CCNCC4)c3)nn12` (racemic) [Example 223, (rac)-5-Chloro-6-{1-[6-(1-piperidin-4-yl-1H-pyrazol-4-yl)-imidazo[1,2-b]pyridazin-3-yl]-ethyl}-quinoline] yielded an IC50 of 33 nM. Work on `Cn1cc(-c2ccc3ncc(Cc4ccc5ncc(C=O)n5c4)n3n2)cn1` [Example 297, 6-[6-(1-Methyl-1H-pyrazol-4-yl)-imidazo[1,2-b]pyridazin-3-ylmethyl]-imidazo[1,2-a]pyridine-3-carbaldehyde] yielded an IC50 of 130 nM. Work on `c1cnc2ccc(Cc3cnc4ccc(-c5ccc6nonc6c5)nn34)cc2c1` [Example 52, 6-(6-Benzo[1,2,5]oxadiazol-5-yl-imidazo[1,2-b]pyridazin-3-ylmethyl)-quinoline] yielded an IC50 of 240 nM. `COc1ccc(-c2ccc3ncc(Cc4ccc5ncccc5c4)n3n2)cc1` [Example 35, 6-[6-(4-Methoxy-phenyl)-imidazo[1,2-b]pyridazin-3-ylmethyl]-quinoline] was tested, and the IC50 was 79 nM. `c1cnc2ccc(Cc3cnc4ccc(-n5ccnc5)nn34)cc2c1` [Example 115, 6-(6-Imidazol-1-yl-imidazo[1,2-b]pyridazin-3-ylmethyl)-quinoline] was tested, and the IC50 was 95 nM. `C[C@@H](c1ccc2ncn(C)c2c1)c1cnc2ccc(-c3cnn(CCO)c3)nn12` [Example 187, 2-(4-{3-[(S)-1-(3-Methyl-3H-benzoimidazol-5-yl)-ethyl]-imidazo[1,2-b]pyridazin-6-yl}-pyrazol-1-yl)-ethanol] showed an IC50 of 19 nM. For `CC(O)(c1c(F)cc2ncccc2c1F)c1cnc2ccc(-c3cnn(CCO)c3)nn12` (racemic) [Example 267, (rac)-1-(5,7-Difluoro-quinolin-6-yl)-1-{6-[1-(2-hydroxy-ethyl)-1H-pyrazol-4-yl]-imidazo[1,2-b]pyridazin-3-yl}-ethanol], the IC50 was 260 nM.
